Patent US9138013B2, “Sweet flavor modifier” (SENOMYX, INC., priority 2012, dated 2015)
Values belong to the compound of their own block, whether it stands above or below them.

Assays:
[1] = test system: human panelists; test: Paired comparison test, sweet flavor potentiation with sucrose or HFCS as the sweetener; type: in vivo
Description: (§1) Test samples containing experimental compounds are presented in pairs to the panelist and they are asked to determine which of the sample is sweeter. […] A group of 10-16 or more panelists participated in each test. Subjects refrained from eating or drinking (except water) for at least 1 hour prior to the test. Subjects rinsed with water several times to clean the mouth.
(§2) Taste tests were performed with sucrose or HFCS as the sweetener in the presence or absence of compound. A 0.2% stock solution of compound in water with sodium bicarbonate was prepared and then this stock solution was diluted in the final sample to achieve the targeted final concentration of compound. For the sample evaluated at pH 2.8 the pH of the solution is decreased to about pH 2.8 using citric acid. Taste samples were also prepared in a low sodium phosphate buffer (pH 7.1; “LSB”) lacking sucrose or HFCS to evaluate the taste of the compound alone. Low sodium phosphate buffer consists of 0.3 mM KCl, 0.5 mM Na2HPO4, and 0.175 mM KH2PO4. Sample volumes are usually 20 ml.
(§3) In one paired comparison test, the panelist is presented with two different samples and asked to identify the sample which is sweeter. The samples within a paired comparison test are presented in a randomized, counterbalanced order. Panelists have up to a 1 minute delay between taste tests to clear the mouth of any tastes.
(§4) Binomial probability tables are used to determine the probability of the correct number of responses occurring for each test at alpha=0.05.

[2] = test system: human panelists; test: Paired comparison test, taste of the compound alone in low sodium phosphate buffer (LSB); type: in vivo
Description: as §1, §2, §3, §4

[3] = test system: human panelists; test: Sucrose potentiation in Iced Coffee product prototype, paired comparison test; type: in vivo; conditions: Table 19: Iced Coffee, 8% Sucrose vs 4% Sucrose + 7.6 μM Compound K2; n = 33 (11 panelists × 3 reps)
Description: All samples were made in an Iced Coffee formulation consisting of Brewed Coffee, 2% milk, Sucrose and water. The samples were prepared using a 0.2% Compound stock made with 0.2% sodium bicarbonate and water. Tests samples are presented in pairs to the panelists and they are asked to determine which of the sample is sweeter.
as §3, §4

melting point: > 250 °C
SMILES: NC1=NS(=O)(=O)Nc2cccc(OC[C@H]3CCCN(C(=O)c4ccncc4)C3)c21 [Example 3, (S)-(3-(((4-amino-2,2-dioxido-1H-benzo[c][1,2,6]thiadiazin-5-yl)oxy)methyl)piperidin-1-yl)(pyridin-4-yl)methanone]

SMILES: OC[C@H]1O[C@@](CO)(O[C@H]2O[C@H](CO)[C@@H](O)[C@H](O)[C@H]2O)[C@@H](O)[C@@H]1O [Sucrose, sucrose]
Sample selected as sweeter by panelists, Total ([1]; Table 1-a: 12% Sucrose vs 6% Sucrose + 21 μM Compound Q1, pH 7.1, n = 30 (15 panelists × 2 reps)): 18
Sample selected as sweeter by panelists, Total ([1]; Table 1-b: 12% Sucrose vs 6% Sucrose + 7.9 μM Compound Q1, pH 2.8, n = 42 (14 panelists × 3 reps)): 24
Sample selected as sweeter by panelists, Total ([1]; Table 4-a: 12% Sucrose vs 6% Sucrose + 12.7 μM Compound J2, pH 7.1, n = 51 (17 panelists × 3 reps)): 28
Sample selected as sweeter by panelists, Total ([1]; Table 4-b: 12% Sucrose vs 6% Sucrose + 12.7 μM Compound J2, pH 2.8, n = 45 (15 panelists × 3 reps)): 20
Sample selected as sweeter by panelists, Total ([1]; Table 7-a: 11% Sucrose vs 6% Sucrose + 12.7 μM Compound K2, pH 7.1, n = 36 (12 panelists × 3 reps)): 20
Sample selected as sweeter by panelists, Total ([1]; Table 7-b: 12% Sucrose vs 6% Sucrose + 7.6 μM Compound K2, pH 2.8, n = 36 (18 panelists × 2 reps)): 21
Sample selected as sweeter by panelists, Total ([1]; Table 10: 12% Sucrose vs 6% Sucrose + 12.7 μM Compound L2, pH 7.1, n = 42 (14 panelists × 3 reps)): 19
Sample selected as sweeter by panelists, Total ([1]; Table 13: 12% Sucrose vs 6% Sucrose + 11.9 μM Compound B1, pH 7.1, n = 34 (17 panelists × 2 reps)): 19
Sample selected as sweeter by panelists, Total ([1]; Table 16: 10% Sucrose vs 6% Sucrose + 9.2 μM Compound F3, pH 7.1, n = 33 (11 panelists × 3 reps)): 16
Sample selected as sweeter by panelists, Total ([2]; Table 3: 1% Sucrose vs LSB + 26.3 μM Compound Q1, n = 26 (13 panelists × 2 reps)): 14
Sample selected as sweeter by panelists, Total ([2]; Table 6: 1% Sucrose vs LSB + 20.4 μM Compound J2, n = 26 (13 panelists × 2 reps)): 14
Sample selected as sweeter by panelists, Total ([2]; Table 9: 1% Sucrose vs LSB + 12.7 μM Compound K2, n = 51 (17 panelists × 2 reps)): 29
Sample selected as sweeter by panelists, Total ([2]; Table 12: 1% Sucrose vs LSB + 12.7 μM Compound L2, n = 36 (12 panelists × 3 reps)): 19
Sample selected as sweeter by panelists, Total ([2]; Table 15: 1% Sucrose vs LSB + 11.9 μM Compound B1, n = 45 (15 panelists × 3 reps)): 19
Sample selected as sweeter by panelists, Total ([2]; Table 18: 1% Sucrose vs LSB + 9.2 μM Compound F3, n = 30 (15 panelists × 2 reps)): 16
Sample selected as sweeter by panelists, Total [3]: 16
